# Reference: article PMC3006138, “Fexinidazole – A New Oral Nitroimidazole Drug Candidate Entering Clinical Development for the Treatment of Sleeping Sickness” (PLoS Neglected Tropical Diseases, 2010)
# Like-named read-outs stand apart in the source and are kept apart here.
# Assay: Rat 28-day toxicokinetics
# Type: in vivo
# Details: plasma, po; for AUC: read-out: AUC within 24 hours post dosing; for half-life: read-out: apparent terminal half-life (converted)
# Protocol: In the rat repeated-dose toxicokinetic study, fexinidazole was administered orally by gavage once a day for 28 consecutive days to ten or fifteen Crl:CD (SD)IGS BR rats/sex/group at doses of 50, 200, or 800 mg/kg/day. A control group received the vehicle alone (5% Tween 80/0.5% methocel). Ten animals/sex/group were sacrificed at the end of the treatment period on day 29 or 30 of study. The remaining 5 animals/sex/group in the control and high-dose groups were sacrificed on day 43 at the end of a 2-weeks observation period. Systemic exposure to fexinidazole and its sulfoxide and sulfone metabolites was evaluated in three additional animals/sex/group. Samples were taken at predose, and 30 min, 1, 2, 4, 8 and 24 h after dosing on days 1, 14, and 28, and in addition at 48 and 72 h after treatment on day 28.
# Toxicokinetic Report for the study No. 0504-2007
# SD Standard deviation of the mean […]
# t1/2,z Terminal half-life tmax Time to peak plasma concentration
# ULOQ Upper limit of quantification
# The study was conducted according to the study protocol and related amendment.
# Fexinidazole was orally given by gavage once a day for 28 days to male and female Sprague Dawley rats according to the following scheme
# Fexinidazole was suspended with 5% Tween 80 in 0.5% Methyl cellulose 400 cP.
# 6.2. Sample Collection and Handling
# Blood samples (about 0.25 mL/sampling time) were withdrawn from retro-orbital sinus plexus under isofluorane anesthesia and put in heparinized plastic tubes kept on a ice-water bath, then centrifuged for 10 min at 1200g at +4°C and two aliquots of about 50 μL of plasma were stored in a freezer at -80°C until analysis. Blood was taken from three rats/gender/dose on Days 1 and 14 at pre-dose and 0.5, 1, 2, 4, 8 and 24 hours after dosing, on Day 28 at pre-dose and 1, 2, 4, 8, 24, 48 and 72 hours after dosing. After the administration of the vehicle, the samples were taken from three rats/gender at pre-dose and […]
# 6.3. Bioanalytical Method
# Rat plasma concentrations of Fexinidazole and its sulfoxide (M1) and sulfone (M2) metabolites were determined by a validated LC/MS/MS method. The calibration range for the assay was 5-1000 ng/mL for Fexinidazole and 25-25000 ng/mL for M1 and M2.
# Study samples containing analytes concentrations above the upper limit of quantitation were diluted with blank matrix prior to analysis.
# 6.4. Pharmacokinetic Calculations
# Pharmacokinetic evaluation was carried out using non-compartmental approach with the aid […]
# Excel spreadsheet (Microsoft Inc., Seattle, USA). […]
# In the calculations, the undetectable concentrations between detectable ones were ignored.
# After each dose level, Cmax and tmax of Fexinidazole and sulfoxide and sulfone metabolites […]
# linear trapezoidal rule up to the last detectable concentration. On Day 28, since the blood […]
# 24 hours post dosing was calculated and denoted AUC0-24. This AUC was calculated in order to compare AUC values on Day 28 to those on Day 1 and Day 14. On Day 28, in addition, the half-life of the terminal phase, t1/2,z, was determined by linear regression analysis of the natural-log concentration vs. time curve, where t1/2,z = ln(2)/slope of the regression line.
# Fexinidazole and metabolites accumulation ratios, based on Cmax (RA,Cmax), AUC0-24 (RA,AUC0-24) and AUC0-t(last) (RA,AUC0-t(last)), were calculated as the ratio between the parameters obtained on Day 14 and Day 28 to the corresponding one at Day 1. […]
# pharmacokinetic parameters of each compound sorted by dose, gender and day of dosing. […]
# compound are reported in Tables 1 and 2, whilst individual and mean parameters of each […]
# Individual and mean (±SD, CV%) plasma
# 2A1 - 19A1 of Appendix 1. Individual plasma concentrations of Fexinidazole and both metabolites are plot in Figures 1 - 9, whilst the mean concentrations are plot in Figures 10 - 15. Mean normalized Cmax and AUC0-t(last) values of Fexinidazole and metabolites vs. dose are plot in Figures 16 - 21.
# In-study bioanalytical validation data are reported in Appendix 2. All analytical batches met […]
# [1] = Sprague Dawley (Crl:CD (SD)IGS BR), 50 mg/kg/day, Day 28, female
# [2] = Sprague Dawley (Crl:CD (SD)IGS BR), 200 mg/kg/day, Day 28, female
# [3] = Sprague Dawley (Crl:CD (SD)IGS BR), 200 mg/kg/day, Day 28, male
# [4] = Sprague Dawley (Crl:CD (SD)IGS BR), 800 mg/kg/day, Day 28, female (n=2)
# [5] = Sprague Dawley (Crl:CD (SD)IGS BR), 800 mg/kg/day, Day 28, male
# [6] = Sprague-Dawley (Crl:CD (SD)IGS BR), 50 mg/kg/day, 50 mg/kg/day po, day 1
# [7] = Sprague-Dawley (Crl:CD (SD)IGS BR), 50 mg/kg/day, 50 mg/kg/day po, day 14
# [8] = Sprague-Dawley (Crl:CD (SD)IGS BR), 200 mg/kg/day, 200 mg/kg/day po, day 1
# [9] = both sexes, Sprague-Dawley (Crl:CD (SD)IGS BR), 200 mg/kg/day, 200 mg/kg/day po, day 14
# [10] = both sexes, Sprague-Dawley (Crl:CD (SD)IGS BR), 800 mg/kg/day, 800 mg/kg/day po, day 1
# [11] = both sexes, Sprague-Dawley (Crl:CD (SD)IGS BR), 800 mg/kg/day, 800 mg/kg/day po, day 14
smiles,measurement,setting,value
"CSc1ccc(OCc2ncc([N+](=O)[O-])n2C)cc1 [Fexinidazole, 1-methyl-2-((p-(methylthio)phenoxy)methyl)-5-nitroimidazole]",AUC,[1],1450 ± 335 ng·h/mL
same,half-life,[1],5.1 ± 5.1 h
same,half-life,"Sprague Dawley (Crl:CD (SD)IGS BR), 50 mg/kg/day, Day 28, male",4.7 ± 1.2 h
same,AUC,[2],4440 ± 514 ng·h/mL
same,half-life,[2],6.3 ± 4.5 h
same,AUC,[3],2330 ± 1760 ng·h/mL
same,half-life,[3],8.8 ± 4.8 h
same,AUC,[4],7640 ± 1780 ng·h/mL
same,half-life,[4],6.7 ± 2.3 h
same,AUC,[5],3170 ± 734 ng·h/mL
same,half-life,[5],11 ± 2.7 h
same,Cmax,[6],90 ± 70 ng/mL
same,Tmax,[6],1.42 ± 1.28 h
same,AUC(0-t),"Sprague-Dawley (Crl:CD (SD)IGS BR), 50 mg/kg/day, 50 mg/kg/day po, day 1, read-out: AUC0-t(last)",470 ± 340 ng·h/mL
same,Cmax,[7],180 ± 140 ng/mL
same,Tmax,[7],1.92 ± 1.2 h
same,AUC(0-t),"Sprague-Dawley (Crl:CD (SD)IGS BR), 50 mg/kg/day, 50 mg/kg/day po, day 14, read-out: AUC0-t(last)",830 ± 540 ng·h/mL
same,Cmax,[8],380 ± 280 ng/mL
same,Tmax,[8],1.92 ± 1.2 h
same,AUC(0-t),"both sexes, Sprague-Dawley (Crl:CD (SD)IGS BR), 200 mg/kg/day, 200 mg/kg/day po, day 1, read-out: AUC0-t(last)",2160 ± 1340 ng·h/mL
same,Cmax,[9],520 ± 300 ng/mL
same,Tmax,[9],2.08 ± 1.11 h
same,AUC(0-t),"both sexes, Sprague-Dawley (Crl:CD (SD)IGS BR), 200 mg/kg/day, 200 mg/kg/day po, day 14, read-out: AUC0-t(last)",3020 ± 1470 ng·h/mL
same,Cmax,[10],1480 ± 710 ng/mL
same,Tmax,[10],1.58 ± 0.66 h
same,AUC(0-t),"both sexes, Sprague-Dawley (Crl:CD (SD)IGS BR), 800 mg/kg/day, 800 mg/kg/day po, day 1, read-out: AUC0-t(last)",12800 ± 4100 ng·h/mL
same,Cmax,[11],1020 ± 870 ng/mL
same,Tmax,[11],3.17 ± 2.84 h
same,AUC(0-t),"both sexes, Sprague-Dawley (Crl:CD (SD)IGS BR), 800 mg/kg/day, 800 mg/kg/day po, day 14, read-out: AUC0-t(last)",9290 ± 5200 ng·h/mL
same,Cmax,"female, Sprague Dawley (Crl:CD (SD)IGS BR), 50 mg/kg, Day 1, female",149 ± 46 ng/mL
same,AUC(0-t),"female, Sprague Dawley (Crl:CD (SD)IGS BR), 50 mg/kg, Day 1, female, read-out: AUC0-t(last)",759 ± 153 ng·h/mL
same,Cmax,"female, Sprague Dawley (Crl:CD (SD)IGS BR), 50 mg/kg/day, Day 28, female",422 ± 358 ng/mL
same,AUC(0-t),"female, Sprague Dawley (Crl:CD (SD)IGS BR), 50 mg/kg/day, Day 28, female, read-out: AUC0-t(last)",1630 ± 570 ng·h/mL
same,Cmax,"female, Sprague Dawley (Crl:CD (SD)IGS BR), 200 mg/kg, Day 1, female",604 ± 211 ng/mL
same,AUC(0-t),"female, Sprague Dawley (Crl:CD (SD)IGS BR), 200 mg/kg, Day 1, female, read-out: AUC0-t(last)",3200 ± 856 ng·h/mL
same,Cmax,"female, Sprague Dawley (Crl:CD (SD)IGS BR), 200 mg/kg/day, Day 28, female",903 ± 87 ng/mL
same,AUC(0-t),"female, Sprague Dawley (Crl:CD (SD)IGS BR), 200 mg/kg/day, Day 28, female, read-out: AUC0-t(last)",4750 ± 508 ng·h/mL
same,Cmax,"female, Sprague Dawley (Crl:CD (SD)IGS BR), 800 mg/kg, Day 1, female",1480 ± 200 ng/mL
same,AUC(0-t),"female, Sprague Dawley (Crl:CD (SD)IGS BR), 800 mg/kg, Day 1, female, read-out: AUC0-t(last)",15700 ± 3610 ng·h/mL
same,Cmax,"female, Sprague Dawley (Crl:CD (SD)IGS BR), 800 mg/kg/day, Day 28, female (n=2)",749 ± 90 ng/mL
same,AUC(0-t),"female, Sprague Dawley (Crl:CD (SD)IGS BR), 800 mg/kg/day, Day 28, female (n=2), read-out: AUC0-t(last)",7940 ± 2210 ng·h/mL
same,Cmax,"male, Sprague Dawley (Crl:CD (SD)IGS BR), 50 mg/kg, Day 1, male",39 ± 17 ng/mL
same,AUC(0-t),"male, Sprague Dawley (Crl:CD (SD)IGS BR), 50 mg/kg, Day 1, male, read-out: AUC0-t(last)",178 ± 99 ng·h/mL
same,Cmax,"male, Sprague Dawley (Crl:CD (SD)IGS BR), 50 mg/kg/day, Day 28, male",133 ± 24 ng/mL
same,AUC(0-t),"male, Sprague Dawley (Crl:CD (SD)IGS BR), 50 mg/kg/day, Day 28, male, read-out: AUC0-t(last)",889 ± 287 ng·h/mL
same,Cmax,"male, Sprague Dawley (Crl:CD (SD)IGS BR), 200 mg/kg, Day 1, male",165 ± 97 ng/mL
same,AUC(0-t),"male, Sprague Dawley (Crl:CD (SD)IGS BR), 200 mg/kg, Day 1, male, read-out: AUC0-t(last)",1120 ± 708 ng·h/mL
same,Cmax,"male, Sprague Dawley (Crl:CD (SD)IGS BR), 200 mg/kg/day, Day 28, male",255 ± 136 ng/mL
same,AUC(0-t),"male, Sprague Dawley (Crl:CD (SD)IGS BR), 200 mg/kg/day, Day 28, male, read-out: AUC0-t(last)",4410 ± 3980 ng·h/mL
same,Cmax,"male, Sprague Dawley (Crl:CD (SD)IGS BR), 800 mg/kg, Day 1, male",1480 ± 1110 ng/mL
same,AUC(0-t),"male, Sprague Dawley (Crl:CD (SD)IGS BR), 800 mg/kg, Day 1, male, read-out: AUC0-t(last)",10000 ± 2160 ng·h/mL
same,Cmax,"male, Sprague Dawley (Crl:CD (SD)IGS BR), 800 mg/kg/day, Day 28, male",523 ± 127 ng/mL
same,AUC(0-t),"male, Sprague Dawley (Crl:CD (SD)IGS BR), 800 mg/kg/day, Day 28, male, read-out: AUC0-t(last)",11900 ± 5360 ng·h/mL
